Reference: PubChem BioAssay (NCI)
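Cells were grown in 96-well plates and exposed to each compound for 48 hours at five concentrations; endpoints were interpolated linearly between bracketing concentrations, or set to the highest concentration if not reached. TGI denotes the concentration required for complete inhibition of growth.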

system: OVCAR-8 ovarian; assay: growth of human tumour cells (NCI), 48 h

Compound | TGI [µM]
CCCCCC(C(O)C#N)C(O)(C(F)(F)F)C(F)(F)F (configuration not stated) | > 10
CC/C=C\C/C=C\C/C=C\CCCCCCCC(=O)OC(COC(=O)CCCCCCCCCCCCCCCCC)COC1OC(CO)C(O)C(O)C1O (configuration not stated) | > 25
CC12CCC(C/C1=N\NC(N)=O)C2(C)C (configuration not stated) | > 100
COC(=O)C1=C(C)N2[C@H](C(=O)O)CS[C@@]2(C)[C@H](C(=O)OC)[C@H]1c1cccc([N+](=O)[O-])c1 | > 100
COC(=O)C(CCCCNC(=O)CNC(=O)OCc1ccccc1)NC(=O)C(CCCCNC(=O)CNC(=O)OCc1ccccc1)NC(=O)OCc1ccccc1 (configuration not stated) | > 100

system: PC-3 prostate; assay: growth of human tumour cells (NCI), 48 h

Compound | TGI [µM]
C[C@@H]1C(=O)CC2(O)[C@@]13C[C@@H](OC(=O)[C@@H]3O)[C@@H](C)[C@@]21COC1=O (some centres not stated) | > 100
COc1ccc(/C(C)=N/NC(=S)N(C)C)c(O)c1 | > 100
CCCCCC(C(O)C#N)C(O)(C(F)(F)F)C(F)(F)F (configuration not stated) | > 10
CC/C=C\C/C=C\C/C=C\CCCCCCCC(=O)OC(COC(=O)CCCCCCCCCCCCCCCCC)COC1OC(CO)C(O)C(O)C1O (configuration not stated) | > 25
CC12CCC(C/C1=N\NC(N)=O)C2(C)C (configuration not stated) | > 100
COC(=O)C1=C(C)N2[C@H](C(=O)O)CS[C@@]2(C)[C@H](C(=O)OC)[C@H]1c1cccc([N+](=O)[O-])c1 | > 100
COC(=O)C(CCCCNC(=O)CNC(=O)OCc1ccccc1)NC(=O)C(CCCCNC(=O)CNC(=O)OCc1ccccc1)NC(=O)OCc1ccccc1 (configuration not stated) | > 100

system: RPMI-8226 leukemia; assay: growth of human tumour cells (NCI), 48 h

Compound | TGI [µM]
C[C@@H]1C(=O)CC2(O)[C@@]13C[C@@H](OC(=O)[C@@H]3O)[C@@H](C)[C@@]21COC1=O (some centres not stated) | > 100
COc1ccc(/C(C)=N/NC(=S)N(C)C)c(O)c1 | > 100
CCCCCC(C(O)C#N)C(O)(C(F)(F)F)C(F)(F)F (configuration not stated) | > 10
CC/C=C\C/C=C\C/C=C\CCCCCCCC(=O)OC(COC(=O)CCCCCCCCCCCCCCCCC)COC1OC(CO)C(O)C(O)C1O (configuration not stated) | > 25
CC12CCC(C/C1=N\NC(N)=O)C2(C)C (configuration not stated) | > 100
COC(=O)C1=C(C)N2[C@H](C(=O)O)CS[C@@]2(C)[C@H](C(=O)OC)[C@H]1c1cccc([N+](=O)[O-])c1 | > 100
COC(=O)C(CCCCNC(=O)CNC(=O)OCc1ccccc1)NC(=O)C(CCCCNC(=O)CNC(=O)OCc1ccccc1)NC(=O)OCc1ccccc1 (configuration not stated) | 53.5

system: RXF 393 renal; assay: growth of human tumour cells (NCI), 48 h

Compound | TGI [µM]
CCN(CC)C(=S)SS(=O)(=O)c1ccc(C)cc1 | 33.4
C[C@@H]1C(=O)CC2(O)[C@@]13C[C@@H](OC(=O)[C@@H]3O)[C@@H](C)[C@@]21COC1=O (some centres not stated) | > 100
CC/C=C\C/C=C\C/C=C\CCCCCCCC(=O)OC(COC(=O)CCCCCCCCCCCCCCCCC)COC1OC(CO)C(O)C(O)C1O (configuration not stated) | > 25
COC(=O)C1=C(C)N2[C@H](C(=O)O)CS[C@@]2(C)[C@H](C(=O)OC)[C@H]1c1cccc([N+](=O)[O-])c1 | > 100

system: SF-268 CNS; assay: growth of human tumour cells (NCI), 48 h

Compound | TGI [µM]
CCN(CC)C(=S)SS(=O)(=O)c1ccc(C)cc1 | > 100
C[C@@H]1C(=O)CC2(O)[C@@]13C[C@@H](OC(=O)[C@@H]3O)[C@@H](C)[C@@]21COC1=O (some centres not stated) | > 100
COc1ccc(/C(C)=N/NC(=S)N(C)C)c(O)c1 | > 100
CCCCCC(C(O)C#N)C(O)(C(F)(F)F)C(F)(F)F (configuration not stated) | > 10
CC/C=C\C/C=C\C/C=C\CCCCCCCC(=O)OC(COC(=O)CCCCCCCCCCCCCCCCC)COC1OC(CO)C(O)C(O)C1O (configuration not stated) | > 25
CC12CCC(C/C1=N\NC(N)=O)C2(C)C (configuration not stated) | > 100
COC(=O)C1=C(C)N2[C@H](C(=O)O)CS[C@@]2(C)[C@H](C(=O)OC)[C@H]1c1cccc([N+](=O)[O-])c1 | > 100
COC(=O)C(CCCCNC(=O)CNC(=O)OCc1ccccc1)NC(=O)C(CCCCNC(=O)CNC(=O)OCc1ccccc1)NC(=O)OCc1ccccc1 (configuration not stated) | > 100

system: SF-295 CNS; assay: growth of human tumour cells (NCI), 48 h

Compound | TGI [µM]
CCN(CC)C(=S)SS(=O)(=O)c1ccc(C)cc1 | > 100
C[C@@H]1C(=O)CC2(O)[C@@]13C[C@@H](OC(=O)[C@@H]3O)[C@@H](C)[C@@]21COC1=O (some centres not stated) | > 100
COc1ccc(/C(C)=N/NC(=S)N(C)C)c(O)c1 | > 100
CCCCCC(C(O)C#N)C(O)(C(F)(F)F)C(F)(F)F (configuration not stated) | > 10
CC/C=C\C/C=C\C/C=C\CCCCCCCC(=O)OC(COC(=O)CCCCCCCCCCCCCCCCC)COC1OC(CO)C(O)C(O)C1O (configuration not stated) | > 25
CC12CCC(C/C1=N\NC(N)=O)C2(C)C (configuration not stated) | > 100
COC(=O)C1=C(C)N2[C@H](C(=O)O)CS[C@@]2(C)[C@H](C(=O)OC)[C@H]1c1cccc([N+](=O)[O-])c1 | > 100

system: SF-539 CNS; assay: growth of human tumour cells (NCI), 48 h

Compound | TGI [µM]
CCN(CC)C(=S)SS(=O)(=O)c1ccc(C)cc1 | 39
C[C@@H]1C(=O)CC2(O)[C@@]13C[C@@H](OC(=O)[C@@H]3O)[C@@H](C)[C@@]21COC1=O (some centres not stated) | > 100
CCCCCC(C(O)C#N)C(O)(C(F)(F)F)C(F)(F)F (configuration not stated) | > 10
COC(=O)C1=C(C)N2[C@H](C(=O)O)CS[C@@]2(C)[C@H](C(=O)OC)[C@H]1c1cccc([N+](=O)[O-])c1 | > 100

system: SK-MEL-2 melanoma; assay: growth of human tumour cells (NCI), 48 h

Compound | TGI [µM]
CCN(CC)C(=S)SS(=O)(=O)c1ccc(C)cc1 | > 100
C[C@@H]1C(=O)CC2(O)[C@@]13C[C@@H](OC(=O)[C@@H]3O)[C@@H](C)[C@@]21COC1=O (some centres not stated) | > 100
COc1ccc(/C(C)=N/NC(=S)N(C)C)c(O)c1 | > 100
CC/C=C\C/C=C\C/C=C\CCCCCCCC(=O)OC(COC(=O)CCCCCCCCCCCCCCCCC)COC1OC(CO)C(O)C(O)C1O (configuration not stated) | > 25
CC12CCC(C/C1=N\NC(N)=O)C2(C)C (configuration not stated) | > 100
COC(=O)C1=C(C)N2[C@H](C(=O)O)CS[C@@]2(C)[C@H](C(=O)OC)[C@H]1c1cccc([N+](=O)[O-])c1 | > 100
COC(=O)C(CCCCNC(=O)CNC(=O)OCc1ccccc1)NC(=O)C(CCCCNC(=O)CNC(=O)OCc1ccccc1)NC(=O)OCc1ccccc1 (configuration not stated) | 54.2

system: SK-MEL-28 melanoma; assay: growth of human tumour cells (NCI), 48 h

Compound | TGI [µM]
CCN(CC)C(=S)SS(=O)(=O)c1ccc(C)cc1 | 39.4
C[C@@H]1C(=O)CC2(O)[C@@]13C[C@@H](OC(=O)[C@@H]3O)[C@@H](C)[C@@]21COC1=O (some centres not stated) | > 100
COc1ccc(/C(C)=N/NC(=S)N(C)C)c(O)c1 | > 100
